From paper PMC3669024, “Pharmacological Characterization of a 5-HT1-Type Serotonin Receptor in the Red Flour Beetle, Tribolium castaneum” (PLoS ONE, 2013)
Entries after “also recorded” stand apart in the source; their conditions may differ. Where a name gives a salt, the structure may show the parent alone. Read-outs that look alike come from different tables or passages of the source.

Legend:
Trica5-HT1 [1] = target: T1, Trica5-HT1 (Tribolium castaneum, UniProt R9ULB8); experiment: Aequorin-luminescence assay, agonist activation of Trica5-HT1 in CHO-WTA11 cells (apoaequorin + Gα16); format: cell-based; conditions: for response at 100 µM agonist: Figure 3A; for logEC50 (mean ± SEM) / EC50: receptor activation in CHO-WTA11 cells; for agonist behaviour: dose-response 1 pM to 1 mM; for response at concentrations ≤100 µM: results not shown
T1 sequence (R9ULB8 entry or part of it): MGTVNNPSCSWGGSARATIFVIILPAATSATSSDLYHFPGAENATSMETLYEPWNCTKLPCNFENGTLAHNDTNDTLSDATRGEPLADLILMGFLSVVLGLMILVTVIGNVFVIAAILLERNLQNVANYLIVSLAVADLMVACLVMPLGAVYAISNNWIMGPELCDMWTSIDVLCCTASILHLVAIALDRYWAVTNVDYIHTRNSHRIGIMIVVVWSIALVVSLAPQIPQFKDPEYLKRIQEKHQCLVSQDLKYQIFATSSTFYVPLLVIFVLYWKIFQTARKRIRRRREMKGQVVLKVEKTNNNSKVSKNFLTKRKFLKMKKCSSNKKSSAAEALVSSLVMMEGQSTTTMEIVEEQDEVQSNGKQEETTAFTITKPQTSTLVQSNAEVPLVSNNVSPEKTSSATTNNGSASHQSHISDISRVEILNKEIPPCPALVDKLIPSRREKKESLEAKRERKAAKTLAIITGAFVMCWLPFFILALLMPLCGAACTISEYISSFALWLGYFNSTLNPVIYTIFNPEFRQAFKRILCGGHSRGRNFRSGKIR
Experimental: (§1) General binding studies were performed in Chinese hamster ovary (CHO) WTA11 cells stably coexpressing apoaequorin and the promiscuous Gα16. This allowed us to measure the pharmacology independent of the downstream signaling. CHO-PAM28 cells stably expressing apoaequorin, but not the promiscuous Gα16, and human embryonic kidney cells (HEK) 293 cells were used to measure downstream signaling via Ca^2+ and cAMP, respectively. CHO cell lines were provided by Prof. Marc Parmentier (University of Brussels, Belgium) and Dr. Michel Detheux (Euroscreen S.A., Belgium). HEK293 cells were a gift from Prof. Arnd Baumann (Research Centre Jülich, Germany.
(§2) Cells were cultured in vitro as monolayers at 37°C, 5% CO2 and high relative humidity, and subcultivated twice a week. For transfection of CHO cells, 2.5 ml Opti-MEM®I (Invitrogen), 5 µg plasmid DNA and 12.5 µl Plus^TMreagent (Invitrogen) were mixed, stored at room temperature for 5 min and next repleted with 30 µl Lipofectamine™LTX (Invitrogen). After 30 min incubation at room temperature, this transfection mixture was added dropwise to the cells together with 5 ml medium. HEK293 cells were cotransfected with receptor construct (4 µg) and CRE-luciferase construct (2 µg), consisting of the open reading frame of the reporter gene, luciferase, downstream of a multimerized cAMP-response-element (CRE6x), [39]. All transfections were performed in T75 flasks with a confluency of about 60 percent. Cells were grown overnight, after which 15 ml of medium was added for an additional overnight incubation period.
(§3) The transfected CHO cells were detached with phosphate buffered saline (PBS) containing 0.2% EDTA and collected in DMEM/F-12 (without phenol red, with L-glutamine and 10 mM HEPES) (Gibco). The amount of viable cells was determined using the NucleoCounter NC-100+TM (Chemometic). Cells were pelleted for 4 min at 800 rpm at room temperature and resuspended in BSA-medium (DMEM/F12 without phenol red, with L-glutamine and 10 mM HEPES, supplemented with 0.1% bovine serum albumin) to a concentration of 5×10^6 cells/ml. Coelenterazine H (Invitrogen) was added to a final concentration of 5 µM, and cells were gently shaken for 4 h at room temperature in the dark. After a 10-fold dilution in BSA-medium, cells were incubated another 30 min. The pharmacological ligands were dissolved in BSA-medium. For agonists, 50 µl containing the final ligand concentration was added to appropriate wells of a 96-well plate. For antagonists, 25 µl of the antagonist solution was supplemented with 25 µl of a 5-HT solution. Receptor activity was measured as the light emission after adding 50 µl of the cell suspension. Light emission was measured for 30 s using a Mithras LB940 (Berthold Technologies). Subsequently, cells were lysed with Triton X-100 (0.1% in BSA-medium) and light emission was recorded for another 8 s. BSA-medium was used as a negative control. Light emission from each well was calculated relative to the total response (ligand+Triton X-100) using the output file of Mikrowin2000 software (Mikrotek). Further analysis was done in Graphpad Prism 5.
In order to pharmacologically characterize Trica5-HT1, we used CHO-WTA11 cells stably expressing apoaequorin and the promiscuous Gα16 subunit. […] The dose-response relationship for 5-HT and these synthetic agonists was examined at concentrations ranging from 1 pM to 1 mM (Figure 3B). […] Since the efficacy achieved by any agonist depends on the number of receptors expressed, we measured a dose-response curve for 5-HT in every experiment and normalized all agonist effects to the maximum 5-HT response, set at 100% (Figure 3B).

Trica5-HT1 [2] = target: T1, Trica5-HT1; experiment: Aequorin-luminescence assay, antagonist inhibition of 5-HT mediated activation of Trica5-HT1 in CHO-WTA11 cells; format: cell-based; conditions: for inhibition of 5-HT induced responses (words): antagonist 10 nM to 1 mM; for IC50 / logIC50 (mean ± SEM): CHO-WTA11 cells; for nature of inhibition: 5-HT dose-response in presence of different antagonist concentrations; for inhibition of activation by 100 nM 5-HT at high concentrations (≥1 mM): antagonist ≥1 mM
Experimental: as §1, §2, §3
Potential antagonists were tested by simultaneously applying 5-HT (100 nM) and a high dose of antagonist (100 µM) to Trica5-HT1 expressing cells (Figure 4A). In addition, the dose-dependence of the antagonistic effects were measured with antagonist concentrations ranging from 10 nM to 1 mM (Figure 4B). […] We used the Gaddum/Schild plot to compare the inhibitory potencies of the antagonists by their pA2 values (i.e. the […] of the concentration of antagonist that doubles the amount of 5-HT required for obtaining the same effect).

[3] = inhibition of 5-HT (100 nM) mediated activation, given as negative log values
[4] = inhibition of 5-HT (100 nM) mediated activation, read-out: IC50
[5] = IC50, inhibition of 5-HT (100 nM) mediated activation
[6] = logIC50 (mean ± SEM), inhibition of 5-HT (100 nM) mediated activation, given as negative log values

## CC(N)Cc1c[nH]c2ccc(O)cc12.O=C(O)/C=C\C(=O)O (stereo not drawn) [αm-5-HT, α-methylserotonin maleate]
Trica5-HT1 [1]; CHO-WTA11 cells
  response at 100 µM agonist: Significant responses
Trica5-HT1 [1]; EC50 compared with 5-HT, CHO-WTA11 cells
  fold less potent than 5-HT: more than 100 fold
Trica5-HT1 [1]; given as negative log values
  logEC50 (mean ± SEM): −4.97±0.18
Trica5-HT1 [1]; read-out: EC50
  EC50: 10.7 µM

## O=C(c1ccc(F)cc1)C1CCN(CCn2c(=O)[nH]c3ccccc3c2=O)CC1 [ketanserin, ketanserin (+)-tartrate]
Trica5-HT1 [2]; 5-HT 100 nM
  inhibition of 5-HT induced responses (words): no detectable inhibition
Trica5-HT1 [2]; inhibition of 5-HT (100 nM) mediated activation
  IC50: no inhibition
Trica5-HT1 [2]; [3]
  logIC50 (mean ± SEM): no inhibition

## COc1ccc2[nH]cc(CCN)c2c1 [5-MT, 5-methoxytryptamine]
Trica5-HT1 [1]; CHO-WTA11 cells
  response at 100 µM agonist: Significant responses
  agonist behaviour: partial agonists
Trica5-HT1 [1]; given as negative log values, read-out: logEC50 (mean ± SEM) (converted)
  EC50: 91.2 µM
Trica5-HT1 [1]; read-out: EC50
  EC50: 91.8 µM

## NCCc1ccc(O)cc1 [tyramine, tyramine hydrochloride]
Trica5-HT1 [1]; CHO-WTA11 cells
  response at concentrations ≤100 µM: did not generate any detectable responses

## NCC(O)c1ccc(O)cc1 (racemic) [octopamine, DL-octopamine hydrochloride]
Trica5-HT1 [1]; CHO-WTA11 cells
  response at concentrations ≤100 µM: did not generate any detectable responses

## COC(=O)[C@@H]1[C@H]2C[C@H]3c4[nH]c5ccccc5c4CCN3C[C@@H]2CC[C@@H]1O [yohimbin, yohimbine hydrochloride]
Trica5-HT1 [2]; 5-HT 100 nM, even at concentrations up to 100 µM
  inhibition: about 30%

## CC1CCN(CC[C@H]2CCCN2S(=O)(=O)c2cccc(O)c2)CC1.Cl [SB-269970, SB-269970 hydrochloride]
Trica5-HT1 [2]; 5-HT 100 nM
  inhibition of 5-HT induced responses (words): Moderate inhibition; also recorded: more effective inhibition
Trica5-HT1 [2]; [3]
  logIC50 (mean ± SEM): −3.69±0.25
Trica5-HT1 [2]; [4]
  IC50: 205 µM

## CC[C@@H](CO)NC(=O)[C@@H]1C=C2c3cccc4c3c(cn4C)C[C@H]2N(C)C1 [methysergide, methysergide maleate]
Trica5-HT1 [2]; 5-HT 100 nM
  inhibition of 5-HT induced responses (words): effective dose-dependent inhibition
Trica5-HT1 [2]
  nature of inhibition: competitive antagonists
  inhibition of activation by 100 nM 5-HT at high concentrations (≥1 mM): completely inhibited
Trica5-HT1 [2]; [5]
  IC50: 34 µM
Trica5-HT1 [2]; [6]
  IC50: 33.9 µM

## Cl.NCCc1ccc(O)c(O)c1.NCCc1ccc(O)c(O)c1 [dopamine, 3-hydroxytyramine (dopamine) hydrochloride]
Trica5-HT1 [1]; CHO-WTA11 cells
  response at concentrations ≤100 µM: did not generate any detectable responses

## CSc1ccc2c(c1)C(N1CCN(C)CC1)Cc1ccccc1S2 (stereo not drawn) [methiothepin, methiothepin mesylate]
Trica5-HT1 [2]; 5-HT 100 nM
  inhibition of 5-HT induced responses (words): effective dose-dependent inhibition
Trica5-HT1 [2]; 5-HT 100 nM, listed as Methiothepin
  inhibition of 5-HT induced responses (words): dose-dependent inhibition
Trica5-HT1 [2]
  nature of inhibition: competitive antagonists
  inhibition of activation by 100 nM 5-HT at high concentrations (≥1 mM): completely inhibited
Trica5-HT1 [2]; Gaddum/Schild plot, 5-HT dose-response in presence of 10 nM to 1 mM antagonist, read-out: pA2 (± SEM) (converted)
  Kb: 0.676 µM
Trica5-HT1 [2]; inhibition of 5-HT (100 nM) mediated activation, given as negative log values, read-out: logIC50 (mean ± SEM) (converted)
  IC50: 16.2 µM
Trica5-HT1 [2]; [4]
  IC50: 16.4 µM

## COc1cc2nc(N3CCN(C(=O)c4ccco4)CC3)nc(N)c2cc1OC [prazosin, prazosin hydrochloride]
Trica5-HT1 [2]; 5-HT 100 nM
  inhibition of 5-HT induced responses (words): effective dose-dependent inhibition
Trica5-HT1 [2]
  nature of inhibition: competitive antagonists
  inhibition of activation by 100 nM 5-HT at high concentrations (≥1 mM): completely inhibited
Trica5-HT1 [2]; [5]
  IC50: 1.39 µM
Trica5-HT1 [2]; [6]
  IC50: 1.38 µM

## NCCc1c[nH]c2ccc(C(N)=O)cc12.O=C(O)/C=C\C(=O)O [5-CT, 5-carboxamidotryptamine maleate]
Trica5-HT1 [1]; CHO-WTA11 cells
  response at 100 µM agonist: Significant responses
  agonist behaviour: partial agonists
Trica5-HT1 [1]; given as negative log values
  logEC50 (mean ± SEM): −4.61±0.17
Trica5-HT1 [1]; read-out: EC50
  EC50: 24.7 µM

## CC(C)(C)[C@]1(O)CCN2C[C@H]3c4ccccc4CCc4cccc(c43)[C@@H]2C1 [butaclamol, (+)-butaclamol hydrochloride]
Trica5-HT1 [2]; 100 µM, with 5-HT 100 nM
  agonistic effects at high concentration: some agonistic effects
Trica5-HT1 [2]; 5-HT 100 nM
  inhibition of 5-HT induced responses (words): no detectable inhibition
Trica5-HT1 [2]; [6]
  IC50: 204 µM
